Measurements taken from patent US20250360106A1, “PREVENTING IMMUNOTHERAPY-INDUCED EDEMA USING ANGIOTENSIN RECEPTOR BLOCKERS” (The General Hospital Corporation, priority 2022, published 2025).
“Also recorded” adds a separate entry of the source.

Key:
[1] = system: GBM cells; conditions: at physiological levels; cited from earlier work
[2] = system: GL261 tumors; assay: Tumor edema by wet/dry weight (water content), GL261 model; type: in vivo; conditions: mice under anti-PD1 treatment
Protocol: (§1) Edema in the tumor was assessed immediately after animal sacrifice via wet/dry weight analysis to determine the water content as previously described (43).

[3] = system: GBM patients; assay: Patient overall survival, Kaplan-Meier (trial NCT00662506); type: in vivo, human; conditions: cediranib, patients not on ASIs; n=33
[4] = system: MT-MMP-1 and -2 (Mt1, Mt2); assay: scRNASeq of tumor endothelial cells (TECs) from GL261 tumors; type: in vivo, mice
Protocol: Following the single-cell suspension techniques of flow cytometry, tumor cells were blocked in 1% bovine serum albumin in phosphate-buffered saline solution (1% BSA/PBS). Cell suspensions were subsequently stained for flow cytometry for 30 min at 4° C. using antibodies specific for CD45 [30F11]-VioBlue from Miltenyi, CD3 [145-2C11]-PE from Biolegends, and CD 31 [MEC 13.3]-PE from BD Biosciences. Cells were washed with cold PBS, and then incubated for 15 min in 1.5 mL of 1% BSA/PBS containing 1 uM calcein AM (Life Technologies) and 0.33 uM TO-PRO-3 iodide (Life Technologies). Sorting was performed with the FACS Aria Fusion Special Order System (Becton Dickinson) using 488 nm (calcein AM, 530/30 filter; CD3-PE, 585/42 filter), 640 nm (TO-PRO-3, 670/14 filter), and 405 nm (CD45-VioBlue, 450/50 filter) lasers. […]
Sequencing data was processed from raw reads to gene expression matrices, starting with fbcl2fastq (v2.20.0) to generate demultiplexed FASTQ files. Bowtie was used to align the resulting paired-end scRNA-seq reads to the mouse transcriptome (mm10). Gene expression levels were quantified as transcripts-per-million (TPM) by running RSEM (v1.2.19) in paired-end mode. […]

[5] = system: GL261 tumor blood vessels; assay: OCT imaging of tumor perfusion; type: in vivo, mice; conditions: vs PBS-treated controls
Text: In vivo imaging of perfused vessels was achieved via a custom-built optical coherence tomography (OCT) system as previously described (15). […] A depth-resolved profile was generated each day, and the raw tomograms were processed as previously described. Images across multiple days were co-registered using the Scale-invariant feature transform (SIFT) algorithm in ImageJ and Python.

[6] = system: PD-L1; assay: PD-L1 immunohistochemistry, GL261; type: in vivo, mice; conditions: 2 weeks of losartan, n=11-13
Text: (§2) Brains with tumors were prepped and stained for histology as previously described (45) and imaged on a TissueFAXS (TissueGnostics) slide scanner at the Ragon Institute, Massachusetts Institute of Technology.

[7] = system: GL261 tumors; assay: Bulk RNASeq of GL261 tumors; type: in vivo, mice
[8] = system: hyaluronic acid (HA); assay: Hyaluronic acid immunofluorescent imaging, GL261; type: in vivo, mice; conditions: 2 weeks of losartan, n=5
Text: as §2

[9] = system: GL261 tumors; assay: Flow cytometry of tumors and cervical draining lymph nodes, GL261; type: in vivo, mice
Protocol: Single-cell suspensions were prepared from tumors and cervical draining lymph nodes that were isolated and dissected under stereotactic microscope. Cells were stained and processed (on a BD LSRFortessa X-20 Cell analyzer) and analyzed (FlowJo, Tree Star) as previously described (16). The following antibodies from BD Biosciences, EBioscience, and BioLegend were used at 1:200 dilutions: CD45-BV605, CD3-BV785, CD4-BV640, CD8-BV711A, NK1.1-APC; FoxP3-BV421; PD1-PerCP710A; TIGIT-PE Cy7; TIM3-PE; CD19-BV510; K167-FITC; GranzymeB-PE Cy7; CD11 b-BV785; MHCII-BV605; F4/80-PerCP Cy5.5; CX3CR1-APC; CD206-PE CY7; CD86-BV650; CCR2-PE; GR1-AF700.

[10] = system: GL261; assay: Solid stress by 3D micro-ultrasound tissue deformation, GL261; type: in vivo, mice; conditions: 2 weeks of losartan, n=4
Text: Tumor size was visualized by 3D micro-ultrasound in anesthetized mice through the transparent cranial windows (45). Ultrasound was also used to measure tumor deformation as a readout of solid stress, following previous methods (14).

[11] = system: 005 GSC; assay: Tumor edema by wet/dry weight, 005 GSC model; type: in vivo, mice; conditions: after 2 weeks of treatment
Protocol: as §1

[12] = system: 005 GSC; assay: Survival study, 005 GSC model; type: in vivo, mice; conditions: losartan with anti-PD1, no detectable tumors over 100 days
Protocol: (§3) Brain tumor implantation in the forebrain (50,000-100,000 cells), cranial window surgery and tumor resection as part of the standard of care treatment regimen were conducted as previously described (16, 43, 45). Mice were allowed to recover for 10-14 days after cranial window surgery prior to tumor implantation, and for 2 days after resection surgery (as part of the standard of care or bihemispheric model) prior to treatment initiation.

[13] = system: GL261; assay: Survival study, GL261 model with standard of care (resection, radiation, temozolomide); type: in vivo, mice
Protocol: as §3

[14] = system: GBM; conditions: in combination with the standard of care; cited from earlier work
[15] = system: glioblastoma; assay: Survival of mice with glioblastoma under losartan and ICB (summary statement); type: in vivo; conditions: losartan with ICB, in lieu of corticosteroids
[16] = system: GL261; assay: Survival study, GL261 model; type: in vivo, mice; conditions: losartan with anti-PD1, no detectable tumors over 100 days
Protocol: as §3

[17] = system: CT2A; assay: Survival study, CT2A model; type: in vivo, mice
Protocol: as §3

[18] = system: recurrent GBM patient; assay: MR T2-FLAIR imaging of a recurrent GBM patient before and after anti-PD-L1; type: in vivo, human; conditions: after 4 months of anti-PD-L1 treatment; NCT02336165
[19] = system: GBM patients; conditions: human, in vivo; cited from earlier work
[20] = GL261, standard of care + anti-PD1 + losartan

CNC(=O)[C@H](Cc1c[nH]c2ccccc12)NC(=O)[C@@H](CC(=O)NO)CC(C)C [Ilomastat]
toxicity to GBM cells [1]: non-toxic | anti-PD1-induced edema [2]: controls anti-PD1-induced edema comparably to losartan; also recorded: phenocopied the ability of losartan to prevent anti-PD1-induced edema

COc1cc2c(Oc3ccc4[nH]c(C)cc4c3F)ncnc2cc1OCCCN1CCCC1 [cediranib]
overall survival [3]: 527 days

CCCCc1nc(Cl)c(CO)n1Cc1ccc(-c2ccccc2-c2nn[nH]n2)cc1 [losartan]
TEC MT-MMP-1 and -2 (Mt1, Mt2) expression [4]: downregulating | tumor vessel normalization and perfusion [5]: greater overall perfusion | PD-L1 protein expression [6]: reduces | global and pro-tumor (M2-like) TAM-associated genes ([7]; bulk RNASeq): reduced the expression | microglia-associated genes ([7]; bulk RNASeq): upregulated | gene expression related to ECM, angiogenesis, immunosuppression, and hypoxia ([7]; vs controls, n=3): significantly reduced | HA levels [8]: reduces | myeloid cells in tumors [9]: fewer myeloid cells | solid stress (tissue deformation) [10]: reduces | anti-PD1-induced edema [11]: decreases anti-PD1-induced edema | long-term survivors (LTS) [12]: 22% | OS under the standard of care without ICB ([13]; GBM mouse models, losartan not given in conjunction with ICB): does not improve OS | long-term survivors [13, 20]: 43% | tumor re-challenge of long-term survivors [13, 20]: rejected tumor re-challenge | mice cured ([13]; losartan with ICB in combination with standard of care treatment): 40% | median OS [14]: failed to improve median OS | mice cured [15]: 20% | long-term survivors (LTS) [16]: 15% | effect of adding losartan to anti-PD1 on survival [17]: failed to further enhance ICB efficacy | anti-PD1-induced edema [2]: decreases anti-PD1-induced edema

MEDI4763: anti-PD-L1 (NCT02336165) given to a recurrent GBM patient
edema on MR T2-FLAIR images [18]: increased edema

bevacizumab
OS in GBM patients under ICB therapy [19]: failed to improve OS
